{
  "source": "PubChem BioAssay AID1963827",
  "about": "(Molecular Pharmacology Branch, DTP, NCI, 2024)",
  "test_system": "994946-033-R-J1-PDC complex spheroid viability",
  "assay": "Anticancer human tumor 994946-033-R-J1-PDC patient-derived melanoma cell line growth inhibition [POLQ]",
  "settings": "for pIC50: curve of first compound; for viability, T/C: stronger effect = lower value",
  "procedure,_shortened": "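Growth inhibition in 3D: complex spheroids (tumor PDC, HUVEC, MSC) treated with POLQ inhibitor combinations; where Cmax unknown, highest tested concentration 10 microM, except SN-38 at 1 microM.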",
  "key": {"[1]": {"settings": "second compound 0.0316 µM, first compound 0.0316 µM"}, "[2]": {"settings": "second compound 0.0316 µM, first compound 0.1 µM"}, "[3]": {"settings": "second compound 0.0316 µM, first compound 0.316 µM"}, "[4]": {"settings": "second compound 0.0316 µM, first compound 1 µM"}, "[5]": {"settings": "second compound 0.0316 µM, first compound 3.16 µM"}, "[6]": {"settings": "second compound 0.0316 µM, first compound 10 µM"}, "[7]": {"settings": "second compound 0.1 µM, first compound 0.0316 µM"}, "[8]": {"settings": "second compound 0.1 µM, first compound 0.1 µM"}, "[9]": {"settings": "second compound 0.1 µM, first compound 0.316 µM"}, "[10]": {"settings": "second compound 0.1 µM, first compound 1 µM"}, "[11]": {"settings": "second compound 0.1 µM, first compound 3.16 µM"}, "[12]": {"settings": "second compound 0.1 µM, first compound 10 µM"}, "[13]": {"settings": "second compound 0.316 µM, first compound 0.0316 µM"}, "[14]": {"settings": "second compound 0.316 µM, first compound 0.1 µM"}, "[15]": {"settings": "second compound 0.316 µM, first compound 0.316 µM"}, "[16]": {"settings": "second compound 0.316 µM, first compound 1 µM"}, "[17]": {"settings": "second compound 0.316 µM, first compound 3.16 µM"}, "[18]": {"settings": "second compound 0.316 µM, first compound 10 µM"}, "[19]": {"settings": "second compound 1 µM, first compound 0.0316 µM"}, "[20]": {"settings": "second compound 1 µM, first compound 0.1 µM"}, "[21]": {"settings": "second compound 1 µM, first compound 0.316 µM"}, "[22]": {"settings": "second compound 1 µM, first compound 1 µM"}, "[23]": {"settings": "second compound 1 µM, first compound 3.16 µM"}, "[24]": {"settings": "second compound 1 µM, first compound 10 µM"}, "[25]": {"settings": "second compound 3.16 µM, first compound 0.0316 µM"}, "[26]": {"settings": "second compound 3.16 µM, first compound 0.1 µM"}, "[27]": {"settings": "second compound 3.16 µM, first compound 0.316 µM"}, "[28]": {"settings": "second compound 3.16 µM, first compound 1 µM"}, "[29]": {"settings": "second compound 3.16 µM, first compound 3.16 µM"}, "[30]": {"settings": "second compound 3.16 µM, first compound 10 µM"}, "[31]": {"settings": "second compound 10 µM, first compound 0.0316 µM"}, "[32]": {"settings": "second compound 10 µM, first compound 0.1 µM"}, "[33]": {"settings": "second compound 10 µM, first compound 0.316 µM"}, "[34]": {"settings": "second compound 10 µM, first compound 1 µM"}, "[35]": {"settings": "second compound 10 µM, first compound 3.16 µM"}, "[36]": {"settings": "second compound 10 µM, first compound 10 µM"}},
  "note": "pIC50: −log10 of the molar value.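 Further: spheroids exposed to drugs for 7 days.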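 Wherever viability, T/C is given: 100% = DMSO vehicle treated spheroids.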",
  "data": [
    {"smiles": "COc1cc2cc(C(=O)CCC(=O)O)sc2cc1OC", "note": "+ Cc1cccc(N(C)C(=O)C2C(O)CCN2c2nc(C)cc(C(F)(F)F)c2C#N)c1", "values": [
      {"measurement": "pIC50", "setting": "second compound 0.0316 µM", "result": "< 5.00"},
      {"measurement": "pIC50", "setting": "second compound 0.1 µM", "result": "< 5.00"},
      {"measurement": "pIC50", "setting": "second compound 0.316 µM", "result": "< 5.00"},
      {"measurement": "pIC50", "setting": "second compound 1 µM", "result": "< 5.00"},
      {"measurement": "pIC50", "setting": "second compound 3.16 µM", "result": "< 5.00"},
      {"measurement": "pIC50", "setting": "second compound 10 µM", "result": "< 5.00"},
      {"measurement": "viability, T/C", "setting": "[1]", "result": 79.5, "unit": "%"},
      {"measurement": "viability, T/C", "setting": "[2]", "result": 96.4, "unit": "%"},
      {"measurement": "viability, T/C", "setting": "[3]", "result": 130, "unit": "%"},
      {"measurement": "viability, T/C", "setting": "[4]", "result": 74.9, "unit": "%"},
      {"measurement": "viability, T/C", "setting": "[5]", "result": 91, "unit": "%"},
      {"measurement": "viability, T/C", "setting": "[6]", "result": 82.3, "unit": "%"},
      {"measurement": "viability, T/C", "setting": "[7]", "result": 116, "unit": "%"},
      {"measurement": "viability, T/C", "setting": "[8]", "result": 91.4, "unit": "%"},
      {"measurement": "viability, T/C", "setting": "[9]", "result": 102, "unit": "%"},
      {"measurement": "viability, T/C", "setting": "[10]", "result": 88.5, "unit": "%"},
      {"measurement": "viability, T/C", "setting": "[11]", "result": 98.8, "unit": "%"},
      {"measurement": "viability, T/C", "setting": "[12]", "result": 92.8, "unit": "%"},
      {"measurement": "viability, T/C", "setting": "[13]", "result": 67.7, "unit": "%"},
      {"measurement": "viability, T/C", "setting": "[14]", "result": 96.1, "unit": "%"},
      {"measurement": "viability, T/C", "setting": "[15]", "result": 70.5, "unit": "%"},
      {"measurement": "viability, T/C", "setting": "[16]", "result": 88.2, "unit": "%"},
      {"measurement": "viability, T/C", "setting": "[17]", "result": 79.7, "unit": "%"},
      {"measurement": "viability, T/C", "setting": "[18]", "result": 84.3, "unit": "%"},
      {"measurement": "viability, T/C", "setting": "[19]", "result": 67.6, "unit": "%"},
      {"measurement": "viability, T/C", "setting": "[20]", "result": 86.9, "unit": "%"},
      {"measurement": "viability, T/C", "setting": "[21]", "result": 72.9, "unit": "%"},
      {"measurement": "viability, T/C", "setting": "[22]", "result": 103, "unit": "%"},
      {"measurement": "viability, T/C", "setting": "[23]", "result": 72.3, "unit": "%"},
      {"measurement": "viability, T/C", "setting": "[24]", "result": 80.9, "unit": "%"},
      {"measurement": "viability, T/C", "setting": "[25]", "result": 120, "unit": "%"},
      {"measurement": "viability, T/C", "setting": "[26]", "result": 93.4, "unit": "%"},
      {"measurement": "viability, T/C", "setting": "[27]", "result": 101, "unit": "%"},
      {"measurement": "viability, T/C", "setting": "[28]", "result": 94.4, "unit": "%"},
      {"measurement": "viability, T/C", "setting": "[29]", "result": 110, "unit": "%"},
      {"measurement": "viability, T/C", "setting": "[30]", "result": 94.1, "unit": "%"},
      {"measurement": "viability, T/C", "setting": "[31]", "result": 97.6, "unit": "%"},
      {"measurement": "viability, T/C", "setting": "[32]", "result": 94.4, "unit": "%"},
      {"measurement": "viability, T/C", "setting": "[33]", "result": 92.9, "unit": "%"},
      {"measurement": "viability, T/C", "setting": "[34]", "result": 86.3, "unit": "%"},
      {"measurement": "viability, T/C", "setting": "[35]", "result": 87.8, "unit": "%"},
      {"measurement": "viability, T/C", "setting": "[36]", "result": 76.7, "unit": "%"}
    ]},
    {"smiles": "C=CC(=O)N1CCN(c2nc(=O)n(-c3c(C)ccnc3C(C)C)c3nc(-c4c(O)cccc4F)c(F)cc23)C(C)C1", "note": "(centres undefined) + COC1C(OC(N)=O)C(O)C(Oc2ccc3c(O)c(NC(=O)c4ccc(O)c(CC=C(C)C)c4)c(=O)oc3c2C)OC1(C)C", "values": [
      {"measurement": "pIC50", "setting": "second compound 0.0316 µM", "result": "< 5.00"},
      {"measurement": "pIC50", "setting": "second compound 0.1 µM", "result": "< 5.00"},
      {"measurement": "pIC50", "setting": "second compound 0.316 µM", "result": "< 5.00"},
      {"measurement": "pIC50", "setting": "second compound 1 µM", "result": "< 5.00"},
      {"measurement": "pIC50", "setting": "second compound 3.16 µM", "result": "< 5.00"},
      {"measurement": "pIC50", "setting": "second compound 10 µM", "result": "< 5.00"},
      {"measurement": "viability, T/C", "setting": "[1]", "result": 80.4, "unit": "%"},
      {"measurement": "viability, T/C", "setting": "[2]", "result": 110, "unit": "%"},
      {"measurement": "viability, T/C", "setting": "[3]", "result": 104, "unit": "%"},
      {"measurement": "viability, T/C", "setting": "[4]", "result": 101, "unit": "%"},
      {"measurement": "viability, T/C", "setting": "[5]", "result": 104, "unit": "%"},
      {"measurement": "viability, T/C", "setting": "[6]", "result": 95.5, "unit": "%"},
      {"measurement": "viability, T/C", "setting": "[7]", "result": 102, "unit": "%"},
      {"measurement": "viability, T/C", "setting": "[8]", "result": 105, "unit": "%"},
      {"measurement": "viability, T/C", "setting": "[9]", "result": 87.5, "unit": "%"},
      {"measurement": "viability, T/C", "setting": "[10]", "result": 99.5, "unit": "%"},
      {"measurement": "viability, T/C", "setting": "[11]", "result": 90.8, "unit": "%"},
      {"measurement": "viability, T/C", "setting": "[12]", "result": 114, "unit": "%"},
      {"measurement": "viability, T/C", "setting": "[13]", "result": 92.8, "unit": "%"},
      {"measurement": "viability, T/C", "setting": "[14]", "result": 111, "unit": "%"},
      {"measurement": "viability, T/C", "setting": "[15]", "result": 119, "unit": "%"},
      {"measurement": "viability, T/C", "setting": "[16]", "result": 99, "unit": "%"},
      {"measurement": "viability, T/C", "setting": "[17]", "result": 138, "unit": "%"},
      {"measurement": "viability, T/C", "setting": "[18]", "result": 104, "unit": "%"},
      {"measurement": "viability, T/C", "setting": "[19]", "result": 112, "unit": "%"},
      {"measurement": "viability, T/C", "setting": "[20]", "result": 93.5, "unit": "%"},
      {"measurement": "viability, T/C", "setting": "[21]", "result": 118, "unit": "%"},
      {"measurement": "viability, T/C", "setting": "[22]", "result": 85.9, "unit": "%"},
      {"measurement": "viability, T/C", "setting": "[23]", "result": 112, "unit": "%"},
      {"measurement": "viability, T/C", "setting": "[24]", "result": 75.7, "unit": "%"},
      {"measurement": "viability, T/C", "setting": "[25]", "result": 94, "unit": "%"},
      {"measurement": "viability, T/C", "setting": "[26]", "result": 108, "unit": "%"},
      {"measurement": "viability, T/C", "setting": "[27]", "result": 113, "unit": "%"},
      {"measurement": "viability, T/C", "setting": "[28]", "result": 105, "unit": "%"},
      {"measurement": "viability, T/C", "setting": "[29]", "result": 93.3, "unit": "%"},
      {"measurement": "viability, T/C", "setting": "[30]", "result": 115, "unit": "%"},
      {"measurement": "viability, T/C", "setting": "[31]", "result": 98.1, "unit": "%"},
      {"measurement": "viability, T/C", "setting": "[32]", "result": 81.7, "unit": "%"},
      {"measurement": "viability, T/C", "setting": "[33]", "result": 99.9, "unit": "%"},
      {"measurement": "viability, T/C", "setting": "[34]", "result": 124, "unit": "%"},
      {"measurement": "viability, T/C", "setting": "[35]", "result": 86.9, "unit": "%"},
      {"measurement": "viability, T/C", "setting": "[36]", "result": 105, "unit": "%"}
    ]}
  ]
}
